Earlier results on one compound are cited in PMC4492579, “Potent and Selective Triazole-Based Inhibitors of the Hypoxia-Inducible Factor Prolyl-Hydroxylases with Activity in the Murine Brain” (PLoS ONE, 2015).

In data set [1] the target is T1, FBXL11 (KDM2A) (Homo sapiens, UniProt Q9Y2K7).
T1 sequence (Q9Y2K7 1-1162): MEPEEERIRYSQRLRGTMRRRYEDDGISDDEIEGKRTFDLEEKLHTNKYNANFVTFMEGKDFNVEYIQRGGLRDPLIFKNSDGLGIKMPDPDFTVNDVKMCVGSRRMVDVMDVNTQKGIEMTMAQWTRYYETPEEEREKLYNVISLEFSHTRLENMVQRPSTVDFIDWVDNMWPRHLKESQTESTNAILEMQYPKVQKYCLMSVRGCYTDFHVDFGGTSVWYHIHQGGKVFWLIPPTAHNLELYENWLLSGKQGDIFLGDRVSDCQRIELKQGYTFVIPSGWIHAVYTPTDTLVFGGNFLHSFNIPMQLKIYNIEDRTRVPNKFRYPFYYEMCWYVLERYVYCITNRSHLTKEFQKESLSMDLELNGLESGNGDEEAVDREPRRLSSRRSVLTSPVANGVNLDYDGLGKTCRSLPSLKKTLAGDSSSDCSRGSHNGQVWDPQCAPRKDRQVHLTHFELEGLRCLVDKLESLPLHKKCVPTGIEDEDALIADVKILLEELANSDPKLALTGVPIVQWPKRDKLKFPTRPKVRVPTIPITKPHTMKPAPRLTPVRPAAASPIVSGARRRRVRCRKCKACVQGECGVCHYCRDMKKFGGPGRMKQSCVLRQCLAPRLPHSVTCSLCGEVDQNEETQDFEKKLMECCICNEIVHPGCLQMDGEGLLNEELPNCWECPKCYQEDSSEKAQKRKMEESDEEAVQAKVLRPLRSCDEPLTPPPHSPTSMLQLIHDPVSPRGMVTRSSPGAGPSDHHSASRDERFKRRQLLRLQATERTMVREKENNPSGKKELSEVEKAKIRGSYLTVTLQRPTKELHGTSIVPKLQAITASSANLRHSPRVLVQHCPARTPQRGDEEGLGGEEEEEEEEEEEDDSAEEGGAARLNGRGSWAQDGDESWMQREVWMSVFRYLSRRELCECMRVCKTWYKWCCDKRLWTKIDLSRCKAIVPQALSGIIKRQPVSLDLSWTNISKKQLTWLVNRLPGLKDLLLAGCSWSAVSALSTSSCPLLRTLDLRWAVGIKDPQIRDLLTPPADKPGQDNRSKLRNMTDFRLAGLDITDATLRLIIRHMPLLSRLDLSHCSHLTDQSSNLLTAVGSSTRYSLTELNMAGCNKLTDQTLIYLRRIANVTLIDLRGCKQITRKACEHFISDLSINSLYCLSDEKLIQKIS
Further details: method as in PMID 26682036. The conditions noted are these: cited from earlier work.

The target in data set [2] is T2, JMJD2A (KDM4A) (Homo sapiens, UniProt O75164).
T2 sequence (O75164 1-1064): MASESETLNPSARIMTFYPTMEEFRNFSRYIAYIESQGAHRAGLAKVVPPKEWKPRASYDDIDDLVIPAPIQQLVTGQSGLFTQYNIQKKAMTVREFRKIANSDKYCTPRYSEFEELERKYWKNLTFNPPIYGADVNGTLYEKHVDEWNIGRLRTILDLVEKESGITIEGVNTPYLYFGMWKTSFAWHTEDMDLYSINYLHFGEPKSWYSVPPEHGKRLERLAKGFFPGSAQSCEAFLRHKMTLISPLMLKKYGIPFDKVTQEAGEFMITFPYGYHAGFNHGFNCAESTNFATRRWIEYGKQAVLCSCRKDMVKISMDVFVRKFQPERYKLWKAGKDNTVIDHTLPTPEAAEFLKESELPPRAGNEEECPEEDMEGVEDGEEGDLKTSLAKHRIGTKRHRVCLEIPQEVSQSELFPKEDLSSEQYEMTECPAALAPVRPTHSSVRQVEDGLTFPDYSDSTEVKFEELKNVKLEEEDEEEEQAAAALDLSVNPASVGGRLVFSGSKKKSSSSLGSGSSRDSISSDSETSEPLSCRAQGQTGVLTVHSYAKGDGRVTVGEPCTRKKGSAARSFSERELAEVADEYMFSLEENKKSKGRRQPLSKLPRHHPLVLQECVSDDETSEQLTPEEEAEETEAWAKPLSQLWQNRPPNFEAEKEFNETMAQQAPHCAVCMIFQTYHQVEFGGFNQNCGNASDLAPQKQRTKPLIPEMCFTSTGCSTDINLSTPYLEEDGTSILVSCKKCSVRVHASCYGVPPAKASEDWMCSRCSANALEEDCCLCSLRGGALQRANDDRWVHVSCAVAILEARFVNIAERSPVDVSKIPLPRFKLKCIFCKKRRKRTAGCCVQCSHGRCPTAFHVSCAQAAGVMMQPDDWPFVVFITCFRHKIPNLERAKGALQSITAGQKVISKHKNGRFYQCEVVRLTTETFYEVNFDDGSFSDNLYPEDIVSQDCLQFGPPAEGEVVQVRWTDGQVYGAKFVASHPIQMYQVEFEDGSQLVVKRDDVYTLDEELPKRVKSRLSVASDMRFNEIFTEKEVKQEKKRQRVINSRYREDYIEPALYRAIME
The arrangement: method as in PMID 26682036. To be noted: cited from earlier work.

The structures appear in SMILES notation.

`O=C(O)CNC(=O)c1c(O)c2ccccc2n(Cc2ccccc2)c1=O` [IOX2]: the values for the IC50 in data set [1] and in data set [2] were 52 µM and 100 µM, respectively.
